Results taken from patent US7144862B2, “Orally administered peptides to ameliorate atherosclerosis” (The Regents of the University of California, priority 2000, dated 2006).

Test system: human artery wall cells
Experiment: Lipoproteins from 5F-injected mice tested in human artery wall cell cocultures (lipid hydroperoxides, monocyte chemotactic activity)
Format: cell-based
Details: 20 μg/mouse/day
Protocol: Cocultures of human artery wall cells, monocyte isolation, isolation of lipoproteins by ultracentrifugation from the plasma of normal human donors or from mouse plasma by FPLC, and determination of lipid hydroperoxides and monocyte chemotactic activity were performed according to standard methods. All human subject participation was with informed consent approved by the UCLA Human Subjects Protection Committee. The protocol for testing mouse lipoproteins in the coculture was also performed as follows: Briefly, LDL and HDL were isolated by FPLC from mouse plasma from mice fed the atherogenic diet and injected with vehicle (PBS), or with peptide 5F at 20 μg/mouse/day. The cocultures were treated with human LDL at 200 μg/ml LDL protein, or mouse LDL at 200 μg/ml or with 200 μg/ml human LDL+human HDL at 350 μg/ml of HDL protein or mouse HDL at 300 μg/ml or with mouse HDL alone at 300 μg/ml. […] The supernatants were collected and analyzed for Auerbach lipid hydroperoxide equivalents.

Ac-DWLKAFYDKVFEKFKEFF-NH2 [Peptide 5F, Ac-D-W-L-K-A-F-Y-D-K-V-F-E-K-F-K-E-F-F-NH2]
ability of HDL from injected mice to inhibit human LDL oxidation and LDL-induced monocyte chemotactic activity (mouse HDL 300 μg/ml with human LDL 200 μg/ml): as effective in inhibiting human LDL oxidation and preventing LDL-induced monocyte chemotactic activity in the cocultures as was normal human HDL
oxidation of, and monocyte chemotactic activity induced by, LDL from injected mice versus PBS (mouse LDL 200 μg/ml): less readily oxidized and induced less monocyte chemotactic activity
